Reference: patent US3982012A, “4-Hydroxy-benzimidazole compounds and therapeutic compositions” (Boehringer Mannheim G.m.b.H., priority 1974, dated 1976)

Experiments:
cardiac β-receptor = cardiac β-receptor blocking activity: inhibition of isoprenalin tachycardia in wake rabbits; conditions: for Heartbeat Frequency x ± sx / DE250: wake rabbits; for Heartbeat Frequency x ± sx: 30 min later isoprenalin i.v.; for DE250: interpolated dosage which limits the frequency increase to 250 beats/min; for LD50/DE250: ratio of mouse i.v. LD50 to rabbit i.v. DE250 (therapeutic breadth)
Description: (§1) The following tests were carried out to determine (a) the toxicity and (b) the cardiac β-receptor blocking activity of certain test compounds by determining the inhibition of the heart beat frequency increase induced by intravenous administration of isoprenalin.
b. The β-receptor blocking activity of the test compounds was tested on wake rabbits weighing between 2 to 3.5 kg. and kept in wooden cages. EKG-electrodes were inserted into the hind quarters of the rabbits s.c. (II. lead) and the heart frequency was measured using an integrator (15 seconds) as a digital value. The test compounds were then infused through a small tube to the ear vein of the rabbits over a period of 15 minutes. 30 Minutes after the infusion isoprenalin (3,4-dihydroxy-α-[(isopropylamino)-methyl]-benzylalcohol) was injected intravenously at […].

in vivo = conditions: iv, mouse, i.v. (tail vein), five male and five female mice per dosage, read-out: Acute Toxicity LD50 Mouse
Description: as §1
a. […] The compounds, in dissolved form, were injected into the tail vein of five male and five female mice each in increasing dosages. The results (% of animals which died) were used, via programmed probability analysis, to determine the median lethal dosage (LD50).

SMILES	Heartbeat Frequency x ± sx (cardiac β-receptor; 0.01 mg/kg i.v. infusion) [beats/min]	Heartbeat Frequency x ± sx (cardiac β-receptor; 0.1 mg/kg i.v. infusion) [beats/min]	Heartbeat Frequency x ± sx (cardiac β-receptor; 0.25 mg/kg i.v. infusion) [beats/min]	Heartbeat Frequency x ± sx (cardiac β-receptor; 0.5 mg/kg i.v. infusion) [beats/min]	Heartbeat Frequency x ± sx (cardiac β-receptor; 1.0 mg/kg i.v. infusion) [beats/min]	Heartbeat Frequency x ± sx (cardiac β-receptor; 4.0 mg/kg i.v. infusion) [beats/min]	DE250 (cardiac β-receptor) [mg/kg i.v.]	LD50 (in vivo) [mg/kg]	LD50/DE250 (cardiac β-receptor)	Heartbeat Frequency x ± sx (cardiac β-receptor; 0.05 mg/kg i.v. infusion) [beats/min]	Heartbeat Frequency x ± sx (cardiac β-receptor; 5.0 mg/kg i.v. infusion) [beats/min]	Heartbeat Frequency x ± sx (cardiac β-receptor; 2.0 mg/kg i.v. infusion) [beats/min]	Heartbeat Frequency x ± sx (cardiac β-receptor; 10.0 mg/kg i.v. infusion) [beats/min]	Heartbeat Frequency x ± sx (cardiac β-receptor; 20.0 mg/kg i.v. infusion) [beats/min]
CC(C)NCC(O)COc1cccc2ccccc12 (stereo not drawn) [Compound B, 1-Isopropylamino-3-(1-naphthoxy)-2-propanol, reference compound]	342 ± 5	309 ± 9	259 ± 7	248 ± 6	210 ± 8	191 ± 6	0.400							
Cc1nc2cccc(OCC(O)CNC(C)(C)C)c2[nH]1 (stereo not drawn) [Compound IV, 2-Methyl-4-(3-tert.-butylamino-2-hydroxy-propyloxy)-benzimidazole]	289 ± 18	248 ± 7		224 ± 8	211 ± 5		0.08	34	425	255 ± 7	232 ± 5			
CC(=O)Nc1ccc(OCC(O)CNC(C)C)cc1 (stereo not drawn) [Compound A, 4-(2-Hydroxy-3-isopropylamino-propoxy)-acetanilide, reference compound]				307 ± 7	264 ± 9		2.5		28		246 ± 7	250 ± 4	217 ± 4	225 ± 6
CC(C)NCC(O)COc1cccc2nc[nH]c12 (stereo not drawn) [Compound I, 4-(3-Isopropylamino-2-hydroxy-propyloxy)-benzimidazole]	300 ± 11	239 ± 6		228 ± 5	218 ± 11		0.09	38	422	292 ± 17	219 ± 13			
Cc1nc2cccc(OCC(O)CNC(C)C)c2[nH]1 (stereo not drawn) [Compound III, 2-Methyl-4-(3-isopropylamino-2-hydroxy-propyloxy)-benzimidazole]	303 ± 17	255 ± 9			234 ± 11		0.17	29	170	318 ± 11	219 ± 14			
CC(C)(C)NCC(O)COc1cccc2nc[nH]c12 (stereo not drawn) [Compound II, 4-(3-tert.-Butylamino-2-hydroxy-propyloxy)-benzimidazole]	286 ± 12	236 ± 6			244 ± 9		0.05	28	560		273 ± 11			
